# Source: US11130959B2, “Methods and compositions for combinations of mutations associated with herbicide resistance/tolerance in rice” (priority 2016, dated 2021)
# What was measured:
# [1] = test system: rice line R0146 (unmutated); test: Mesotrione tolerance trials; assay type: in vivo, Oryza sativa; conditions: low rates (105 gm ai/ha)
# [2] = test system: F2 individuals from cross ML0831266-03093 x ML0831265-01493; test: Herbicide bioassays on F2 individuals (Table 3); assay type: in vivo, Oryza sativa
# Description: In the population sprayed with 105 gm ai/ha a single QTL found on chromosome 2 with strong linkage to SNP marker BG-id2004662 acted in a mostly dominate manner. This marker and QTL identifies the inherent tolerance in line P1003. The marker is useful for breeding and selection of new mesotrione tolerant lines. The discovery of this QTL facilitates commercial development of new rice varieties with a new method for controlling weeds through the use of mesotrione herbicide. The finding of the linked marker BG-id2004662 is a novel finding and selection strategy for breeding and selecting the tolerance to mesotrione and other herbicides derived from line P1003.
# Combining the HPPD tolerance with the ACCase tolerance into a single rice line was initiated with the HPPD tolerance mapping project by crossing the HPPD tolerant line ML0831266-03093 to the ACCase tolerant line ML0831265-01493. In mapping the F2 population plants were selected for HPPD tolerance by applying mesotrione first at a low rate (105 gmai/ha) followed by a high rate (630 gmai/ha). In this process molecular markers were also developed allowing future selection of HPPD tolerance by either markers or herbicide tolerance screening or both.
# In one example a rate of 105 gm ai/ha is applied followed three weeks later by a second application of 630 gm ai/ha. In another example a rate of 420 gm ai/ha is applied in a single application. Yet another example entails applying the herbicide at a rate of 630 gm ai/ha. Herbicide applications are done at the three to four leaf stage of seedling growth. The ideal situation is to have also planted near or within the F2 population a set of plants from the original mutant mesotrione donor line ML0831266-03093, a row of plants of the wild-type of the mutation line, P1003, and a row of the line involved as the other parent ML0831265-01493. These control lines will allow easy differentiation for inheritance of the tolerance provided by the ML0831266-03093 mutant line through comparison of the response in the F2 plants to these control lines. Only plants that live and are relatively healthy will have inherited and be homozygous for the tolerance level provided by the ML0831266-03093 mutant line.
# [3] = test system: rice line ML0831265-01493; test: Mesotrione tolerance trials; assay type: in vivo, Oryza sativa
# [4] = test system: rice line PL1214418M2-73013 (HPPD native tolerance gene only); test: Contribution of single HPPD tolerance genes, field rows sprayed at 4 leaf stage; assay type: in vivo, Oryza sativa; conditions: 0.5×-4× of 210 gmai/ha, 4 weeks after application
# Description: (§1) During the breeding process to develop new lines (PL1214418M2-80048 and PL1214418M2-73009) with resistance/tolerance to HPPD and ACCase herbicides, two other lines were also investigated to determine the contribution of the HPPD tolerance mutation and the HPPD tolerance native gene. The line PL1214418M2-73001 carries ACCase tolerance and only the HPPD tolerance, whereas […] PL1214418M2-73013 carries ACCase tolerance and only the HPPD native tolerance gene. These selections allow the estimation of the tolerance effect of each of the two genes required for tolerance to HPPD herbicides. The tolerance effect of each gene was measured by growing the lines in single rows including the newly developed line PL1214418M2-73009 that carries both the HPPD tolerance from the mutation and the non-induced tolerance, the HPPD tolerant line ML0831266-0309, and the non-induced parent line P1003. The field plots were sprayed at the 4 leaf stage with the HPPD herbicide mesotrione at 0.5×, 1×, 2×, and 4× multiples of the labeled application rate of 210 gmai/ha.
# [5] = test system: rice line PL1214418M2-73001 (HPPD mutation only); test: as above; assay type: in vivo, Oryza sativa; conditions: 0.5×-4× of 210 gmai/ha, 4 weeks after application
# Description: as §1
# [6] = test system: rice line ML0831266-03093 (HPPDi + HPPDni); test: Mesotrione tolerance trials
# Experimental: FIG. 4 is a graphical representation of results of a trait tolerance trial wherein mesotrione was applied at the indicated rates about 34 days after planting.
# In particular, a rate response experiment was conducted in which two different rates of mesotrione were applied pre-emergence, plus an additional foliar application was also applied.
# Further validation of the trait involved testing the mutant line ML0831266-03093 in the presence of common rice weeds.
# The mutant line is planted in rows or alternatively whole plots are planted and rows of the unmutated line (P1003) and other types of rice or whole plots are planted. Mesotrione is applied pre-emergence or alternatively it is applied post-emergence at the three to four leaf stage of the rice plants. Various rates of mesotrione are applied pre-emergence, pre-emergence followed by post-emergent, or post-emergent with a single or sequential application. Post-emergent applications are applied at the 3-4 leaf stage of the rice.
# [7] = test system: rice line PL1214418M2-73009; test: Trial of recovery of HPPD tolerance in the combined line; assay type: in vivo, Oryza sativa; conditions: 0.5×, 1×, 2×, 4× of 210 gmai/ha and sequential 1× and 2×
# Experimental: Two trials were conducted to measure recovery of tolerance to both ACCase and HPPD herbicides in the new line PL1214418M2-73009. Recovery of tolerance in the line combining the two traits will illustrate that the traits are heritable and can be used to produce new varieties and hybrids carrying herbicide resistance. These trials are important as often times it is difficult to recover complex QTLs for quantitative traits or in some cases a traits response is dependent upon the genetic background. In the first trail the lines resistance to mesotrione (HPPD herbicide) was evaluated by planting line PL1214418M2-73009, the HPPD resistant line ML0831266-03093 and wild-type rice line P1003 and R0146 in plots (5 feet×10 feet). Mesotrione was applied at 0.5×, 1×, 2×, and 4× multiples of the labeled application rate (210 gmai/ha). Two additional treatments were included with a 1× and 2× rate followed by a second application 14 days afterward with the same rates.
# [8] = test system: common weeds in rice (grass weeds such as barnyard grass); test: Weed control in rice crops; assay type: in vivo
# Experimental: FIGS. 5A and 5B are photographs of results of trait tolerance trials; weed control by mesotrione herbicide applied pre-planting was evaluated; the plots were planted with a hybrid of the HPPD tolerant line ML0831266-03093; just before planting, the plot on the right FIG. 5B received an application of mesotrione at 210 gmai/ha; the plot on the left FIG. 5A had no herbicide applied either pre-plant or post-emergence; pictures were taken four weeks after planting showing differences in weed appearance.
# While testing the tolerant lines, the parent lines were also tested to serve as controls and as an indication of commercial potential as a red rice/wild weedy rice control strategy.
# Rice is tolerant to certain ACCase inhibitor herbicides, for example cyhalofop is registered for use in rice. However other ACCase herbicides kill or severely injure rice to varying degrees. […] The applied rates of both types of herbicides giving the weed control are well within the tolerance level of the respective ACCase and HPPD tolerant lines including the combined lines carrying tolerance to both HPPD and ACCase herbicides.
# [9] = test system: rice line P1003 (unmutated parent); test: Mesotrione tolerance trials; assay type: in vivo, Oryza sativa
# [10] = 105 gai/ha followed by second application of 630 gai/ha
# [11] = single application at 105 gai/ha
# [12] = single application at 420 gai/ha
smiles,measurement,setting,value
CS(=O)(=O)c1ccc(C(=O)C2C(=O)CCCC2=O)c([N+](=O)[O-])c1 [mesotrione],survival,[1],killed
same,Observed number of Susceptible plants,[2]; [10],67
same,Observed number of Tolerant plants,[2]; [10],28
same,Observed number of Susceptible plants,[2]; [11],23
same,Observed number of Tolerant plants,[2]; [11],64
same,Observed number of Susceptible plants,[2]; [12],52
same,Observed number of Tolerant plants,[2]; [12],26
same,sensitivity,[3]; in vivo,highly sensitive
same,survival,[3]; low rates (105 gm ai/ha),killed
same,tolerance level,[4],tolerance levels similar to the parent line P1003
same,tolerance level between P1003 and ML0831266-0309,[5],intermediate tolerance
same,rate over which even lines with genetic resistance may be injured,"[6]; FIG. 4 trial, 4 weeks after application",over 420 gmai/ha
same,tolerance of the crop in the presence of common rice weeds,[6]; applied rates,completely tolerant
same,survival,[6]; higher rates,survives
same,survival,[6]; low rates (105 gm ai/ha),survive
same,response compared with original trait line ML0831266-03093,[7],same response
same,control of common weeds in rice,"[8]; alone, especially pre-plant or at 2× the labeled rate of 210 gmai/ha",Control of common weeds in rice was also achieved
same,control of prevalent weed population,[8]; plots with line ML0831266-03093,well controlled
same,survival,[9]; higher rates,killed or severally injured
same,survival,[9]; low rates (105 gm ai/ha),survive
